SMILES strings stand for the structures. Residue numbers refer to the chain shown, from its start. Counter-ions that a name gives are not always drawn.

What all share (test): SIRT1 inhibition assay, OAcADPr mass spectrometry
Holding throughout (format): biochemical

The target of one assay is T1, full-length hSIRT1 I223R (Homo sapiens, UniProt Q96EB6, I223R).
T1 construct: made in house
T1 sequence (Q96EB6 1-747 I223R): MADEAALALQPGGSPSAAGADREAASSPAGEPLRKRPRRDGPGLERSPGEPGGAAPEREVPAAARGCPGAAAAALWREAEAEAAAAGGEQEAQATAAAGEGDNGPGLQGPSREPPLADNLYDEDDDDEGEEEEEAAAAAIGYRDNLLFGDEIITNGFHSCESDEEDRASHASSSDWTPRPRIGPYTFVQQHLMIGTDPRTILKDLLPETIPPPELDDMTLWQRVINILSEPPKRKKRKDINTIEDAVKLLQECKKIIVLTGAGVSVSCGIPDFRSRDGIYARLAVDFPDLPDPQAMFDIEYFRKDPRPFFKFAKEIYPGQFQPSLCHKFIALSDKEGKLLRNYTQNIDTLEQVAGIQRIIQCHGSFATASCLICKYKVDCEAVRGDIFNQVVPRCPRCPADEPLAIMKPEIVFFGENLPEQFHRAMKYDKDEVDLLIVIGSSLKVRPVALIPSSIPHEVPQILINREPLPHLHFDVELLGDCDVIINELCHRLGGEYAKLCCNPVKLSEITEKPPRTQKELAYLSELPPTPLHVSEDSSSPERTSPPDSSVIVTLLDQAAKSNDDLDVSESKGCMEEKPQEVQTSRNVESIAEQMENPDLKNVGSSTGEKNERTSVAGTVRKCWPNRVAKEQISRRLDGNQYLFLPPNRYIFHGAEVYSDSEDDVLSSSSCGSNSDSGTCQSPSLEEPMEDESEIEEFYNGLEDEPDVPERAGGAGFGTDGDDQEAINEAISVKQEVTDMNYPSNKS

For another assay, the target named is T2, full-length hSIRT1 E230Q (Homo sapiens, UniProt Q96EB6, E230Q).
T2 construct: His6 (C); made in house
T2 sequence (Q96EB6 1-747 E230Q): T1 sequence (Q96EB6 1-747 I223R) with R223I, E230Q

The target of a further assay is T3, full-length hSIRT1 E230K (Homo sapiens, UniProt Q96EB6, E230K).
T3 construct: His6 (C); made in house
T3 sequence (Q96EB6 1-747 E230K): T1 sequence (Q96EB6 1-747 I223R) with R223I, E230K

Broadly, the IC50 is the concentration that inhibits the measured activity by half. Low values mean higher potency, high ones lower potency. In the case of `CCCC[C@H](NC(=O)[C@H](CC(C)C)NC(=O)[C@H](CCCCNC(=O)C(F)(F)F)NC(=O)[C@H](CCCCN)NC(=O)[C@H](Cc1c[nH]cn1)NC(=O)[C@H](CCCNC(=N)N)NC(C)=O)C(=O)N[C@@H](Cc1ccccc1)C(N)=O` [TFA-p53 7-mer, Ac-RHK-K^TFA-L-Nle-F-NH2], the IC50 against full-length hSIRT1 I223R was 660 ± 60 nM; against full-length hSIRT1 E230Q it was 860 ± 60 nM; at full-length hSIRT1 E230K it was 1600 ± 300 nM.

The values are drawn from patent US9765075B2, “Substituted bridged urea analogs as sirtuin modulators” (GLAXOSMITHKLINE LLC, priority 2013, dated 2017).
